Measurements reported in US20060234944A1, “Beta-secretase inhibitors and methods of use” (Oklahoma Medical Reseach Foundation, priority 2001, published 2006).
*1 amine or outer side, *2 acyl side, *3 side chain or, on linkers, in order; H or OH if unused. Where a SMILES comes first, the peptide text is derived from it. [ ]: non-standard residue; d: D form. The star is where a group is joined. LeuΨ(S-CHOHCH2)Ala = CC(C)C[C@H](N[*:1])[C@@H](O)C[C@@H](C)C(=O)[*:2]; 5FAM = O=C1OC2(c3ccc(O)cc3Oc3cc(O)ccc32)c2ccc(C(=O)*)cc21; Ahx = NCCCCCC(=O)O

How the values were obtained:
memapsin 2 = molecular target: T1, memapsin 2 (Homo sapiens, UniProt P56817); test: Inhibition of memapsin 2 cleavage of fluorogenic substrate FS-2 (Ki, Ki apparent, Vi/Vo, % inhibition); format: biochemical; conditions: read-out: Ki for memapsin 2
T1 construct: made in house; host or cells: E. coli
T1 sequence (P56817 41-454): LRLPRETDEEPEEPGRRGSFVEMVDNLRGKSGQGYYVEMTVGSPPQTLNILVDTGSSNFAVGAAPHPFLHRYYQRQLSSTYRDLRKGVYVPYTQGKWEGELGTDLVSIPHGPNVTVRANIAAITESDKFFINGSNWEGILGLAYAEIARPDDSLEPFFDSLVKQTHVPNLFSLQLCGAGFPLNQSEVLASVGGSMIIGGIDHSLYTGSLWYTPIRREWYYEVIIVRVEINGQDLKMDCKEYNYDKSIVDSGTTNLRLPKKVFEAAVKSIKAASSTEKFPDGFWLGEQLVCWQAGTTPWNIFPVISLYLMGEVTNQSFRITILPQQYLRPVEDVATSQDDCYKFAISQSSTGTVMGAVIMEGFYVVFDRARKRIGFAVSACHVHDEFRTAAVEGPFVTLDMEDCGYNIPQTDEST
Protocol: Ki is the inhibition equilibrium constant which indicates the ability of compounds to inhibit the β-secretase activity of memapsin 2 and memapsin 1. […] The K1 value is independent of the substrate, and converted from Ki apparent.
The Vi/Vo values depicted in Table 1 were determined at conditions under which the enzyme and inhibitor concentrations were equal (e.g., about 80 nM, 100 nM).
(§1) The relationship of Ki (independent of substrate concentration) to Kiapp is a function of substrate concentration in the assay and the Km for cleavage of the substrate by either memapsin 1 or memapsin 2 by the relationship: Kiapp=Ki(1+[S]/Km).
Ki is the inhibition equilibrium constant which indicates the ability of compounds to inhibit the β-secretase activity of memapsin 2 and memapsin 1. […] The Ki value is independent of the substrate, and converted from Ki apparent.
(§2) An aliquot of the inhibitor of known concentration in DMSO was diluted into 1.8 ml 0.1 M NaOAc, pH 4.0. DMSO and added to a final concentration of 10% (v/v), and memapsin 2 (final concentration of 80 nM), followed by a 20 minute equilibration at 37° C. Compounds were evaluated for the ability to inhibit memapsin 1 and memapsin 2 at concentrations between about 10 nM and about 10 μm of inhibitor.
(§3) The relationship of Ki (independent of substrate concentration) to Kiapp is a function of substrate concentration in the assay and the Km for cleavage of the substrate by either memapsin 1 or memapsin 2 by the relationship: Kiapp=Ki (1+[S]/Km).

plasma Aβ40 [1] = test: Inhibition of Aβ production in tg2576 transgenic mice (plasma Aβ40 ELISA); format: in vivo
Protocol: Six-month-old tg2576 mice (n=21) were injected intraperitoneally (i.p.) 200 μg of conjugate CPI-3 or with control DMSO, in 200 μl of PBS. Plasma were collected from anesthetized animals by orbital bleed or sephaneous vein into heparinized capillary tubes and clarified by centrifugation. Plasma A≢ 1-40 levels were determined by capture ELISA (BioSource International, Camarillo, Calif.). The peptide analogue of CPI-3, with an amide group instead of the hydroxyethylene isostere was synthesized by SynPep (Camarillo, Calif.).
Since the conjugate inhibitors can cross the blood brain barrier in vivo, enter cells both in vitro and in vivo, and inhibit Aβ production in vitro, inhibition of Aβ production in vivo was determined. Tg2576 mice, expressing the Swedish mutation of the human amyloid precursor protein (including SEQ ID NO: 11) (Hsiao, K., et al., Science 274:99-102 (1996), the teachings of which are incorporated hereby in their entirety) were injected with CPI-3, which is identical in amino acid sequence to CPI-2 and lacks the amino-terminal fluorescein (FAM) derivative. Blood was collected from tg2576 animals at time intervals following injection of 400 μg of CPI-3.

plasma Aβ40 [2] = test: Inhibition of Aβ production in APP/F transgenic mouse model of Alzheimer's disease (plasma Aβ40 sandwich ELISA); format: in vivo, mice; conditions: control inhibitor, 163 nmoles i.p., 2 hours following injection
Protocol: Compounds MMI-138, MMI-165, and MMI-185 were synthesized as described above. Compounds were dissolved in 1 ml of dimethyl sulfoxide (DMSO) to a final concentration of about 1 mg/ml for MMI-165 and MMI-185, and about 10 mg/ml for MMI-138. […] Inhibitors were diluted into PBS or H2O immediately prior to injection, as described below. Inhibition constants were determined by methods described by Ermolieff, et al (Biochem. 39:12450-12456 (2000), the teachings of which are incorporated hereby in their entirety).
The tg2576 strain of mice was obtained from Taconic (Germantown, N.Y.). The APP/F strain of mice were obtained by mating the tg2576 mice with the FVB/N strain. To determine presence of the Swedish APP gene in APP/F mice, the DNA from mice was isolated according to the Qiagen Dneasy™ Tissue Kit. PCR (Qiagen kit and protocol) was used to amplify the fragment of DNA corresponding to the human Swedish APP gene. The following primers were used: […]
At the age of three months, animals of the Alzheimer's disease mouse model APP/F were injected intraperitoneally (i.p.) with about 163 nanomoles of either compounds MMI-138 (molecular weight 674 g/mole; 110 μg per animal, n=2), MMI-165 (molecular weight 626 g/mole; 102 μg per animal, n—2), or MMI-185 (molecular weight 686; 112 μg per animal, n—2).
Heparinized capillary tubes collected blood samples from anesthetized animals from either the retro-orbital sinus or from the saphenous vein at specified intervals following injection. The blood samples were transferred to sterile 1.5 mL microcentrifuge tubes, centrifuged at 5,100 RPM for 10 minutes to recover the plasma (supernatant), and stored at −70° C. until analysis for the Aβ40 by Enzyme Linked-Immuno-Sorbent Assay (ELISA).
A sandwich ELISA (BioSource International, Camarillo, Calif.) was used to determine the levels of Aβ40 in plasma samples. The ELISA utilizes a primary antibody specific for human Aβ for the immobilization of the amino-terminus and a detection antibody specific for the carboxy-terminal amino acids of Aβ40. A conjugated secondary antibody was used to detect the ternary complex, using a stabilized chromogen substrate, quantifiable following addition of 1 M HCl, with the optical densities measured at 450 nm. The procedures were followed according to the BioSource protocol. Optical densities were converted to pg/ml quantities of Aβ40 using a linear regression of the optical densities of standards obtained from the commercial kit, to their known concentrations.

memapsin 1 = molecular target: T2, memapsin 1 (Homo sapiens, UniProt Q9Y5Z0); test: Inhibition of memapsin 1 cleavage of fluorogenic substrate FS-2 (Ki apparent, % inhibition); format: biochemical; conditions: Table 9; read-out: Ki apparent (nM) Mep1
T2 construct: made in house; host or cells: E. coli
T2 sequence (Q9Y5Z0 63-466): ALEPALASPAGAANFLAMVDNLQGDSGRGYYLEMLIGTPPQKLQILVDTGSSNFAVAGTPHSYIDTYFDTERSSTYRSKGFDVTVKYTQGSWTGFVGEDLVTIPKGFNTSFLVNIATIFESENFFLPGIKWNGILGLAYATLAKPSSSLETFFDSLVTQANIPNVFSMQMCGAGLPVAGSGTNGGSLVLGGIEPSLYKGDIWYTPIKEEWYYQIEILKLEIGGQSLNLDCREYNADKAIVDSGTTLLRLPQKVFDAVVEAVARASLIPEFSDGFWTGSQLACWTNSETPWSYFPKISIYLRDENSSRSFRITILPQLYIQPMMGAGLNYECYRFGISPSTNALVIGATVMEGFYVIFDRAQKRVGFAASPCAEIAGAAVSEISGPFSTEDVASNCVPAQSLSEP
Protocol: Vi/Vo depicts the ratio of initial cleavage velocities of the substrate FS-2 (Ermolieff, et al., Biochemistry […]:12450-12456 (2000)) by memapsin 1 or memapsin 2 in the absence (Vo) or presence (Vi) of a compound of the invention. […] The Vi/Vo values depicted in Table 1 were determined at conditions under which the enzyme and inhibitor concentrations were equal (e.g., about 80 nM, 100 nM).
as §1, §2, §3

plasma Aβ40 [3] = test: Inhibition of Aβ production in APP/F transgenic mouse model of Alzheimer's disease (plasma Aβ40 sandwich ELISA); format: in vivo, mice; conditions: unconjugated inhibitor, MW 935 g/mole
HEK293 cells = test: Entry of fluorescently labelled inhibitors into cultured cells (flow cytometry); format: cell-based, human; conditions: 10 to 30 minutes incubation
Protocol: Fluorescently labelled inhibitors or fluorescein (Fs) as a control were incubated with suspended cells for time intervals ranging from 10 to 30 minutes. Cells were fixed with paraformaldehyde and permeabilized in 0.2% Tween-20 in PBS for 6 minutes and incubated with anti-fluorescein-Alexa™ 488 antibody (Molecular Probes, Eugene, Oreg.) in order to enhance detection of intracellular inhibitor present from penetration. Flow cytometry (FACSCalibur™) and confocal fluorescent microscopy (Leica TCS NT™) were performed at the Flow and Image Cytometry Lab, OUHSC.

[4] = Martin et al., Aids 13:1227-32 (1999); cited from earlier work
[5] = Transport of conjugated inhibitors into mouse blood cells, splenocytes and brain after i.p. injection
Protocol: Whole blood cells (with EDTA as anti-coagulant in the syringe or in the capillary tube) were isolated from anesthetized animals from the orbital artery or by heart puncture and diluted 1:10 in PBS. Prior to the harvest of other tissue samples, animals were anesthetized and perfused with 150 ml of neutral-buffered 10% formalin. Spleens were harvested intact. Brains were harvested and cerebral hemispheres separated, one for sectioning by cryostat, the other for single cell isolation for flow cytometry.
Sections of the brain hemispheres were obtained by soaking in OCT/PBS at 4° C. for overnight, recovered and frozen in Histo Prep Media.
To collect single cell suspensions, spleens and brain hemispheres were homogenized through a 30 μm screen and directly analyzed by flow cytometric analysis.

[6] = four injections at 2 hour intervals

Compound: CC(C)C[C@H](NC(=O)[C@@H](N)CCC(=O)O)C(=O)N[C@@H](CC(=O)O)C(=O)N[C@@H](CC(C)C)[C@@H](O)C[C@@H](C)C(=O)N[C@H](C(=O)N[C@@H](CCC(=O)O)C(=O)N[C@@H](Cc1ccccc1)C(=O)NCC(=O)NCC(=O)N[C@H](CCCNC(=N)N)C(=O)N[C@H](CCCNC(=N)N)C(=O)N[C@H](CCCNC(=N)N)C(=O)N[C@H](CCCNC(=N)N)C(=O)N[C@H](CCCNC(=N)N)C(=O)N[C@H](CCCNC(=N)N)C(=O)N[C@H](CCCNC(=N)N)C(=O)N[C@H](CCCNC(=N)N)C(=O)N[C@H](CCCNC(=N)N)C(=O)O)C(C)C [CPI-3] (H-ELD[LeuΨ(S-CHOHCH2)Ala]VEFGG[dR][dR][dR][dR][dR][dR][dR][dR][dR]-OH; N-terminus and C-terminus assumed)
- Ki (memapsin 2): 35 nM
- Plasma Aβ40 level relative to initial value (plasma Aβ40 [1]; 2 hours following i.p. injection): about one third
- Aβ level, average low as % of the average initial value (plasma Aβ40 [1]; [6]): 29%
- Inhibition of plasma Aβ (plasma Aβ40 [1]; [6]): about 80%
- Plasma Aβ40 relative to PBS control two hours following injection (plasma Aβ40 [1]; i.p., various doses): significant dose-dependent reduction
- Time of return of plasma Aβ40 to the initial value (plasma Aβ40 [1]; single i.p. injection): ≤ 8 h

Compound: CC(C)C[C@H](NC(=O)[C@@H](N)CCC(=O)O)C(=O)N[C@@H](CC(=O)O)C(=O)N[C@@H](CC(C)C)[C@@H](O)C[C@@H](C)C(=O)N[C@H](C(=O)N[C@@H](CCC(=O)O)C(=O)N[C@@H](Cc1ccccc1)C(=O)O)C(C)C [OM00-3, ELDL*AVEF] (H-ELD[LeuΨ(S-CHOHCH2)Ala]VEF-OH; N-terminus assumed)
- Decrease of plasma Aβ40 (plasma Aβ40 [2]): 16%
- Ki (memapsin 1): 0.18 nM
- Effect on plasma Aβ40 levels (plasma Aβ40 [1]; i.p. injection (FIG. 21C)): did not reduce plasma Aβ40 levels
- Inhibition of Aβ40 production in vivo (plasma Aβ40 [3]): failed to inhibit Aβ40 production

Compound: CC(C)C[C@H](NC(=O)[C@H](CCC(=O)O)NC(=O)CCCCCNC(=O)c1ccc2c(c1)C(=O)OC21c2ccc(O)cc2Oc2cc(O)ccc21)C(=O)N[C@@H](CC(=O)O)C(=O)N[C@@H](CC(C)C)[C@@H](O)C[C@@H](C)C(=O)N[C@H](C(=O)N[C@@H](CCC(=O)O)C(=O)N[C@@H](Cc1ccccc1)C(=O)NCC(=O)NCC(=O)N[C@H](CCCNC(=N)N)C(=O)N[C@H](CCCNC(=N)N)C(=O)N[C@H](CCCNC(=N)N)C(=O)N[C@H](CCCNC(=N)N)C(=O)N[C@H](CCCNC(=N)N)C(=O)N[C@H](CCCNC(=N)N)C(=O)N[C@H](CCCNC(=N)N)C(=O)N[C@H](CCCNC(=N)N)C(=O)N[C@H](CCCNC(=N)N)C(=O)O)C(C)C [CPI-2] ({5FAM-Ahx}-ELD[LeuΨ(S-CHOHCH2)Ala]VEFGG[dR][dR][dR][dR][dR][dR][dR][dR][dR]-OH)
- Penetration of cultured cells (intracellular fluorescence) (HEK293 cells): readily penetrated cultured cells within minutes

Compound: CC(C)(C)NC(=O)[C@@H]1CN(Cc2cccnc2)CCN1C[C@@H](O)C[C@@H](Cc1ccccc1)C(=O)N[C@H]1c2ccccc2C[C@H]1O [indinavir]
- Crossing of the blood-brain barrier [4]: can cross the blood-brain barrier

Compound: CC(C)C[C@H](NC(=O)[C@H](CC(N)=O)NC(=O)[C@@H](NC(=O)[C@H](CCC(=O)O)NC(=O)CCCCCNC(=O)c1ccc2c(c1)C(=O)OC21c2ccc(O)cc2Oc2cc(O)ccc21)C(C)C)[C@@H](O)C[C@@H](C)C(=O)N[C@@H](C)C(=O)N[C@@H](CCC(=O)O)C(=O)N[C@@H](Cc1ccccc1)C(=O)NCC(=O)N[C@@H](Cc1ccc(O)cc1)C(=O)NCC(=O)N[C@@H](CCCNC(=N)N)C(=O)N[C@@H](CCCCN)C(=O)N[C@@H](CCCCN)C(=O)N[C@@H](CCCNC(=N)N)C(=O)N[C@@H](CCCNC(=N)N)C(=O)N[C@@H](CCC(N)=O)C(=O)N[C@@H](CCCNC(=N)N)C(=O)N[C@@H](CCCNC(=N)N)C(=O)N[C@@H](CCCNC(=N)N)C(=O)O [CPI-1] ({5FAM-Ahx}-EVN[LeuΨ(S-CHOHCH2)Ala]AEFGYGRKKRRQRRR-OH)
- Uptake into brain (fluorescence) ([5]; 8 hours after i.p. injection, flow cytometry or confocal microscopy of brain sections): penetration of the fluorescent conjugate into all brain cells
- Blood cells with strong fluorescence signal ([5]; whole blood 20 minutes after i.p. injection of 0.3 nmol): approximately 100%
- Penetration of cultured cells (intracellular fluorescence) (HEK293 cells): readily penetrated cultured cells within minutes
